Structures are written as SMILES.

The test system of data set [1] is MCF7. Kind of data set: Antiproliferative activity against human MCF7 cells incubated for 72 hrs by MTT assay. Conditions: MCF7, 72 h.
Another data set concerns MDA-MB-231. Kind of data set: Antiproliferative activity against human MDA-MB-231 cells incubated for 72 hrs by MTT assay. Conditions: MDA-MB-231, 72 h. For orientation: Tetrazolium assays rely on reduction of a dye to a coloured formazan, in cell work by metabolically active cells.
The test system of the next data set is HCT-116. Kind of data set: Antiproliferative activity against human HCT-116 cells incubated for 72 hrs by MTT assay. To be noted: HCT-116, 72 h.
For another data set, the system named is SCC-9. Kind of data set: Antiproliferative activity against human SCC-9 cells incubated for 72 hrs by MTT assay. To be noted: SCC-9, 72 h.
The nature of data set [2]: Selectivity index, ratio of IC50 for HEK293 cells to IC50 for human MCF7 cells. Conditions: HEK293 cells versus MCF7 cells.
Data set [3] can be described thus: Selectivity index, ratio of IC50 for HEK293 cells to IC50 for human MDA-MB-231 cells. To be noted: HEK293 cells versus MDA-MB-231 cells.
A short description of data set [4]: Selectivity index, ratio of IC50 for HEK293 cells to IC50 for human HCT-116 cells. To be noted: HEK293 cells versus HCT-116 cells.
The nature of data set [5]: Cytotoxicity against HEK293 cells incubated for 72 hrs by MTT assay. Conditions: human.
For data set [6], the system named is MCF7. Kind of data set: cells. To be noted: Homo sapiens, MCF7, 48 h, read-out: Activity.
Description: Induction of apoptosis in human MCF7 cells assessed as viable cells at 0.5 uM incubated for 48 hrs by Annexin-V/FITC staining based flow cytometry analysis (Rvb = 99.3 +/- 0.12 %)
The test system of data set [7] is MCF7. Nature of the data set: cells. Conditions: Homo sapiens, MCF7, 48 h, read-out: Activity. The source holds these as a separate data set.
Description: Induction of apoptosis in human MCF7 cells assessed as viable cells at 2 uM incubated for 48 hrs by Annexin-V/FITC staining based flow cytometry analysis (Rvb = 99.3 +/- 0.12 %)
For data set [8], the system named is MCF7. Kind of data set: cells. Conditions: Homo sapiens, MCF7, 48 h, read-out: Activity. The source holds these as a separate data set.
Description: Induction of apoptosis in human MCF7 cells assessed as viable cells at 0.8 uM incubated for 48 hrs by Annexin-V/FITC staining based flow cytometry analysis (Rvb = 99.3 +/- 0.12 %)

As usually defined, the IC50 is the concentration at which inhibition is half-maximal. `Cc1cc(S(=O)(=O)Nc2nc(Nc3ccc4ccccc4c3)n[nH]2)c(S)cc1Cl`: the half-inhibitory concentration (IC50) came to 4.4 µM in the data set with MCF7 [1], 5.5 µM in the data set on MDA-MB-231, 4.9 µM with HCT-116 and 4 µM in the data set with SCC-9.
As for `Cc1cc2c(cc1Cl)SC(/N=C(/N)Nc1cnc3ccccc3c1)=NS2(=O)=O`, the values for the IC50 with MCF7 [1] and in the data set on MDA-MB-231 were 2.3 µM and 4.1 µM, respectively. For the same compound, the selectivity ratio in [2], in [3] and in data set [4] was more than 65 each time.
For the compound `Cc1cc2c(cc1Cl)SC(/N=C(/N)Nc1ccnc3ccccc13)=NS2(=O)=O`, the concentration for half-maximal inhibition (IC50) in the data set with MCF7 [1] stood at 3.1 µM; in the data set on MDA-MB-231, 5.7 µM. For the same compound, the selectivity ratio in data set [2], in data set [3] and in [4] was more than 65 in each case.
Consider `Cc1cc2c(cc1Cl)SC(/N=C(/N)Nc1cccc3cnccc13)=NS2(=O)=O`, for which the IC50 turned out to be 1.3 µM in the data set with MCF7 [1], 2.6 µM in the data set with MDA-MB-231, 3.2 µM in the data set on HCT-116 and 1.2 µM in the data set with SCC-9. Moreover, the half-maximal inhibitory concentration (IC50) at 72 h in [5] worked out at 72.2 µM. Further, the selectivity ratio in data set [2], in [3] and in data set [4] was more than 65 each time.
On to `Cc1cc2c(cc1Cl)SC(/N=C(/N)Nc1cnc3ccccn3c1=O)=NS2(=O)=O`, for which the IC50 was 1 µM with MCF7 [1], 2.5 µM with MDA-MB-231, 4 µM with HCT-116 and 0.9 µM in the data set on SCC-9. The compound further gave an IC50 at 72 h in [5] of 66.5 µM. Moreover, the selectivity ratio in [2], in data set [3] and in data set [4] was more than 65 throughout.
With `Cc1cc2c(cc1Cl)SC(/N=C(/N)Nc1ccc3nccnc3c1)=NS2(=O)=O`, the figures for the IC50 in the data set with MCF7 [1] and with MDA-MB-231 were 2.5 µM and 4.1 µM, respectively. For the same compound, the selectivity ratio in data set [2], in data set [3] and in [4] was more than 65 in each case.
Regarding `Cc1cc2c(cc1Cl)SC(/N=C(/N)Nc1ccnc3cc(Cl)ccc13)=NS2(=O)=O`, the IC50 with MCF7 [1] stood at 0.8 µM; with MDA-MB-231 it was 2.1 µM; with HCT-116, 2.8 µM; in the data set on SCC-9 it was 1 µM. Also, the IC50 at 72 h in data set [5] worked out at 65 µM. Also, the selectivity ratio in data set [2], in [3] and in data set [4] was more than 65 each time. Besides, the viability at 0.5 µM in the data set with MCF7 [6] is 64.9%. Further, in the data set on MCF7 [7], the viability at 2 µM is 14.8%. Further, in the data set on MCF7 [8], the viability at 0.8 µM is 27.4%.
Take `COc1cc2nccc(N/C(N)=N\C3=NS(=O)(=O)c4cc(C)c(Cl)cc4S3)c2cc1OC`: the 50% inhibitory concentration (IC50) with MCF7 [1] was determined as 3.5 µM; in the data set on MDA-MB-231, 6.1 µM. For the same compound, the selectivity ratio in [2], in data set [3] and in data set [4] was more than 65 in each case.
As for `Cc1cc(S(=O)(=O)Nc2nc(NC(=O)c3ccc4ccccc4c3)n[nH]2)c(S)cc1Cl`, the IC50 with MCF7 [1] came to 2.8 µM; in the data set with MDA-MB-231 it was 3.2 µM; with HCT-116, 4.1 µM; in the data set on SCC-9, 2.6 µM. Further, the selectivity ratio in data set [2], in [3] and in data set [4] was more than 65 in each case.
On to `CC(=O)c1cn(C)c2ccc(N/C(N)=N\C3=NS(=O)(=O)c4cc(C)c(Cl)cc4S3)cc12`, for which the IC50 in the data set with MCF7 [1] came out at 2.9 µM; in the data set with MDA-MB-231, 5.2 µM. Also, the selectivity ratio in [2], in data set [3] and in data set [4] was more than 65 throughout.
`COc1nc(N/C(N)=N\C2=NS(=O)(=O)c3cc(C)c(Cl)cc3S2)c2ccn(C)c2n1`: the IC50 in the data set with MCF7 [1] worked out at 2.5 µM; in the data set on MDA-MB-231, 4 µM. Also, the selectivity ratio in [2], in data set [3] and in data set [4] was more than 65 in each case.
As for `Cc1cc2c(cc1Cl)SC(/N=C(/N)Nc1ccc3c(ccc(=O)n3C)c1)=NS2(=O)=O`, the IC50 with MCF7 [1] came to 4 µM; in the data set on MDA-MB-231, 5.8 µM. Further, the selectivity ratio in data set [2], in data set [3] and in data set [4] was more than 65 in each case.
On to `Cc1cc(S(=O)(=O)Nc2nc(Nc3cncc4ccccc34)n[nH]2)c(S)cc1Cl`, for which the IC50 in the data set with MCF7 [1] was determined as 1.8 µM; in the data set on MDA-MB-231, 2.6 µM; in the data set with HCT-116 it was 3.8 µM; with SCC-9, 2.1 µM. Besides, the selectivity ratio in [2], in data set [3] and in data set [4] was more than 65 throughout.
In the case of `Cc1cc2c(cc1Cl)SC(/N=C(/N)NC(=O)c1ccc3ccccc3c1)=NS2(=O)=O`, the results for the half-maximal inhibitory concentration (IC50) with MCF7 [1] and in the data set with MDA-MB-231 were 2.4 µM and 4 µM, respectively. In addition, the selectivity ratio in [2], in data set [3] and in [4] was more than 65 each time.
Regarding `Cc1cc2c(cc1Cl)SC(/N=C(/N)Nc1ccc3ccccc3n1)=NS2(=O)=O`, the figures for the IC50 in the data set with MCF7 [1] and with MDA-MB-231 were 2.3 µM and 3.8 µM, respectively. Besides, the selectivity ratio in [2], in data set [3] and in [4] was more than 65 in each case.
With `Cc1cc2c(cc1Cl)SC(/N=C(/N)Nc1ccc(N3CCOCC3)cc1)=NS2(=O)=O`, the half-maximal inhibitory concentration (IC50) in the data set on MCF7 [1] was 1.1 µM; in the data set with MDA-MB-231, 2.4 µM; in the data set on HCT-116 it was 4.4 µM; with SCC-9, 1.2 µM. Moreover, the IC50 at 72 h in [5] turned out to be 70.1 µM. Also, the selectivity ratio in [2], in [3] and in data set [4] was more than 65 throughout.
In the case of `Cc1cc2c(cc1Cl)SC(/N=C(/N)Nc1cncc3ccccc13)=NS2(=O)=O`, the half-maximal inhibitory concentration (IC50) is 3 µM in the data set with MCF7 [1] and 5.3 µM in the data set on MDA-MB-231. Also, the selectivity ratio in data set [2], in [3] and in [4] was more than 65 in each case.
For the compound `COc1cccc2c(O)ccc(N/C(N)=N\C3=NS(=O)(=O)c4cc(C)c(Cl)cc4S3)c12`, the IC50 with MCF7 [1] was 3.2 µM; in the data set on MDA-MB-231 it was 6.3 µM. In addition, the selectivity ratio in data set [2], in [3] and in data set [4] was more than 65 throughout.

Source of the values: ChEMBL document CHEMBL5344474, “Molecular editing of NSC-666719 enabling discovery of benzodithiazinedioxide-guanidines as anticancer agents” (RSC Med Chem, 2024).
